Test results: patent publication US11466286B2, “Methods and compositions for conferring and/or enhancing herbicide tolerance using protoporphyrinogen oxidase or variant thereof” (FarmHannong Co., Ltd., priority 2016, dated 2022)

Assays:
[1] = test system: BT3 (ΔPPO) E. coli with CyPPO10m-6 (E225G, G258S, Q266L, T336I, V356F, F360M, A364D, R406G, W419R; SEQ ID NO: 131); experiment: Growth of BT3 with error-prone PCR mutant of CyPPO10; type: cell-based; details: up to 200 μM herbicide
[2] = test system: CyPPO13 (Synechococcus sp. JA-3-3Ab PPO, SEQ ID NO: 4) variant F373T, MBP fusion; experiment: PPO inhibition assay; type: biochemical; details: herbicide 0-5,000 nM, 50 μM substrate
Protocol: (§1) The enzyme activities of PPO protein and PPO protein variants were examined, and inhibition assay by PPO-inhibiting herbicides was conducted. It was confirmed that the PPO protein has low water-solubility, but in case of being expressed as a fusion protein with MBP (maltose binding protein) (MBP-PPO), the PPO protein is able to be stably expressed as water-soluble form. Therefore, the wild type and variant proteins which were expressed in the form of fusion protein with MBP were used in the present test (refer to FIG. 4).
(§2) At first, a substrate of PPO protein, Protoporphyrinogen IX was synthesized. This process was performed in the space where nitrogen gas is streamed. 6 mg of protoporphyrin IX was dissolved in 20% (v/v) EtOH 20 ml, and stirred under dark condition for 30 minutes. The obtained protoporphyrinogen IX solution was put into a 15 ml screw tube in an amount of 800 and flushed with nitrogen gas for 5 minutes. To this, 1 g of sodium amalgam was added and vigorous shaking was performed for 2 minutes. The lid was open to exhaust hydrogen gas in the tube. Thereafter, the lid was closed and incubated for 3 minutes. The […] was filtered using syringe and cellulose membrane filter. To 600 μl of the obtained […], 2M MOPS [3-(N-morpholino)propanesulfonic acid] was added in an amount of approximately 300 thereby adjusting pH to 8.0. To determine the enzyme activity of PPO protein, a reaction mixture was prepared with the following composition (based on 10 ml): 50 mM Tris-Cl (pH 8.0); 50 mM NaCl; 0.04% (v/v) Tween 20; 40 mM glucose (0.072 g); 5 units glucose oxidase (16.6 mg); and 10 units catalase (1 μl).
(§3) Two hundred microliters (200 μl) of reaction mixture containing a purified PPO protein were placed in 96 well plates, and preincubated for 30 min at room temperature to reduce the oxygen concentration by the reaction of glucose oxidase-catalase. The mineral oil was layered and then the reaction was initiated by adding the substrate, […], to a final concentration of 50 μM. The reaction proceeded at room temperature for 30 min and the fluorescence of protoporphyrin IX was measured using Microplate reader (Sense, Hidex) (excitation: 405 nm; emission: 633 nm). To calculate the PPO enzyme activity, protoporphyrinogen IX solution was kept open in the air to oxidize the solution (overnight). To this, 2.7N HCl was added, and the absorbance at 408 nm was measured. A standard curve was generated using standard protoporphyrin IX, and the PPO activity was measured by calibration of protoporphyrin IX using the standard curve of protoporphyrin IX.
(§4) The final concentration of each herbicide was as follows: […]

[3] = test system: CyPPO13 (Synechococcus sp. JA-3-3Ab PPO, SEQ ID NO: 4) variant F373H, MBP fusion; experiment: PPO inhibition assay; type: biochemical; details: herbicide 0-5,000 nM, 50 μM substrate
Protocol: as §1, §2, §3, §4

[4] = test system: CyPPO13 (Synechococcus sp. JA-3-3Ab PPO, SEQ ID NO: 4) variant F373N, MBP fusion; experiment: PPO inhibition assay; type: biochemical; details: herbicide 0-5,000 nM, 50 μM substrate
Protocol: as §1, §2, §3, §4

[5] = test system: CyPPO13 (Synechococcus sp. JA-3-3Ab PPO, SEQ ID NO: 4) variant F373I, MBP fusion; experiment: PPO inhibition assay; type: biochemical; details: herbicide 0-5,000 nM, 50 μM substrate
Protocol: as §1, §2, §3, §4

[6] = test system: CyPPO13 (Synechococcus sp. JA-3-3Ab PPO, SEQ ID NO: 4) variant F373C, MBP fusion; experiment: PPO inhibition assay; type: biochemical; details: herbicide 0-5,000 nM, 50 μM substrate
Protocol: as §1, §2, §3, §4

[7] = test system: A. thaliana transformants with CyPPO10 or CyPPO13 or variants; experiment: Herbicide tolerance of A. thaliana transformants (T1); type: in vivo, Arabidopsis thaliana; details: 1 μM spray
Excerpt: A. thaliana was transformed with a binary vector having ORF of a selectable marker, bar gene (glufosinate-tolerant), and that of each encoding gene of CyPPO10 or CyPPO13 variants. The transgenic plant was examined for cross-tolerance towards glufosinate and PPO-inhibiting herbicides. The bar gene was also used to examine whether the transgene was stably inherited during generations. NOS promoter and E9 terminator were used for bar gene expression.

SMILES: COC(=O)CCNC(=O)C(C)Sc1cc(-n2c(=O)cc(C(F)(F)F)n(C)c2=O)c(F)cc1Cl (stereo not shown) [Tiafenacil]
- cell viability [1]: cell viability similar to that of cells with wild type CyPPO10
- IC50 [2]: 818 nM
- IC50 [3]: 114 nM
- IC50 [4]: 40 nM
- IC50 [5]: 135 nM
- IC50 [6]: 212 nM
- plant damage [7]: no damage
